From US20070185176A1, “Heparanase inhibitors and uses thereof” (Insight Bioharmaceuticals Ltd., priority 2004, published 2007)

Target: T1, human recombinant heparanase (h-hpa) (Homo sapiens, UniProt Q9Y251)
T1 sequence (Q9Y251 158-543 limits assumed): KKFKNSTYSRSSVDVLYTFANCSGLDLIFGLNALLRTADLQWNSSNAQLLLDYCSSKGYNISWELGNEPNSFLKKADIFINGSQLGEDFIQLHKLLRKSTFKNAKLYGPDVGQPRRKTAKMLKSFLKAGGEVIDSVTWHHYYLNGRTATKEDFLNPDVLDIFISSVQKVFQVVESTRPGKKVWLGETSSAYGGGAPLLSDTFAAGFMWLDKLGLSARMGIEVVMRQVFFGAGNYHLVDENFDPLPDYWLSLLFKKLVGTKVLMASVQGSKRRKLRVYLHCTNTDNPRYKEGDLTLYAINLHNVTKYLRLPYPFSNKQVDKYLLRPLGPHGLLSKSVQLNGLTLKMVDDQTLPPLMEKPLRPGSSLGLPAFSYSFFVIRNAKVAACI
T1 sequence (Q9Y251 36-109 limits assumed): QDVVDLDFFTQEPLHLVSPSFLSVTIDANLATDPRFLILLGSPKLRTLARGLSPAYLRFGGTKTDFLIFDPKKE
Assay: In vitro dimethylmethylene blue (DMB) assay for heparanase activity
Protocol: (a) In Vitro Dimethylmethylene Blue (DMB) Assay for Heparanase Activity
Heparin Sepharose CL-6B beads were added up to the top of the wells of a multiscreen column loader (Millipore). A 96-well multiscreen plate containing 0.65 μm hydrophilic, low protein binding, Durapore membrane (Millipore) was placed, upside down, on top of the multiscreen column loader. The column loader and the multiscreen plate were held together, turned over, and the beads were uniformly transferred from the column loader to the multiscreen plate (Millipore, MADVM 650). Double-distilled water (DDW) was then added to the beads, which were allowed to swell for one minute, and then washed (three times) with DDW under vacuum. Heparin concentration was estimated to be 10 μM/well.
To each well, phosphate-buffered saline (PBS) containing 1% bovine serum albumin (BSA; 70 μl/well) and DMB (32 mg of DMB were dissolved in 5 ml ethanol, diluted to 1 liter with formate buffer containing 4 g sodium formate and 4 ml formic acid; 120 μl/well) were added. Color was developed after 5 minutes, and the absorbance of the samples was determined using a microplate reader (Spectra Max, Molecular Devices) at 530 nm with 570 nm as reference. The absorbance correlated to heparanase activity. As a control, heparanase was added to the heparin Sepharose swollen beads in the multiscreen plate and the heparanase reaction products were filtered immediately thereafter and the absorbance of these control samples was subtracted from all other samples.
The cell extracts were centrifuged and resuspended in 20 mM phosphate citrate buffer, pH 5.4 containing 50 mM NaCl. The cells were lysed by three cycles of freezing and thawing. The cell lysates were centrifuged (10000×g for 5 min), supernatants were collected and then assayed for heparanase activity using the DMB assay.
The partially purified human recombinant heparanase or the crude cell extracts expressing either human or mouse recombinant heparanase were added for a 3-hour incubation and the reaction continued as described above. Absorbance of the developing color was measured as described above.

SMILES | IC50 [nM]
CCCCCCCCCCCCCCCCCC1=NN(c2ccc(Oc3ccccc3)c(S(=O)(=O)O)c2)C(=O)C1/N=N/c1cc(OC)ccc1OC (stereo not shown) [Compound 8] | 210
CCCCCCCCCCCCCCCCCCNC(=O)Nc1ccc(S(=O)(=O)O)cc1 [Compound 70] | 7000
C=CCCCCCCCCCCCCCCC(CC(=O)NC1=NN(c2c(Cl)cc(Cl)cc2Cl)C(=O)C1)C(=O)O (stereo not shown) [Compound 56] | 6800
CCCCCCCCCCCCCCCCCCNC(=O)C1CC(=O)N(c2ccc(Oc3ccc(C(=O)O)cc3)c(S(=O)(=O)O)c2)C1 (stereo not shown) [Compound 107, 2-(4-carboxy-phenoxy)-5-(4-octadecyl-carbamoyl-2-oxo-pyrrolidin-1-yl)-benzene sulfonic acid] | 330
CCCCCCCCCCCCCCCCCCN1/C(=C/C=C/c2oc3ccccc3[n+]2CCCCCCCCCCCCCCCCCC)Oc2ccccc21 [Compound 66] | 1000
CCCCCCCCCCCCCCCC1=CN(c2ccc(S(=O)(=O)O)cc2)C(=O)C1 [Compound 75] | 1600
CCCCCCCCCCCCCCCCCCN(C)c1ccc(C(=O)O)cc1NC(=O)c1cc(/N=N/c2cc(C(=O)OC)ccc2O)c2ccccc2c1O [Compound 62] | 11600
CCCCCCCCCCCCCCCCCC1=NN(c2nc3cc(C(=O)O)cc(C(=O)O)c3s2)C(=O)C1 [Compound 39] | 2800
CCCCCCCCCCCCCCCC[n+]1ccc(C=NO)cc1 [Compound 80] | 17000
CCCCCCCCCCCCCCCCCCOc1ccc(C(=O)CC(=O)Nc2ccc(Oc3cccc(C(=O)O)c3)c(C(=O)O)c2)cc1 [Compound 23] | 400
CCCCCCCCCCCCCCCCn1c(=N)n(CC(O)c2ccc(OC)c(OC)c2)c2ccccc21 (stereo not shown) [Compound 65] | 4800
CCCCCCCCCCCCCC(=O)NC1=NN(c2ccc(Oc3ccccc3)c(S(=O)(=O)O)c2)C(=O)C1 [Compound 83] | 400
CCCCCCCCCCCCC/C=C/CC(O)(C(=O)O)C(F)(F)F (stereo not shown) [Compound 97] | 6000
CCCCCCCCCCCCCCCCCCN(C)c1ccc(S(=O)(=O)O)cc1NC(=O)c1cc(/N=N/c2c(Cl)cccc2Cl)c2ccccc2c1O [Compound 53] | 400
CCCCCCCCCCCCCCCCCCCCC1=NN(c2ccc(S(=O)(=O)O)cc2N)C(=O)C1 [Compound 14] | 870
CCCCCCCCCCCCCCCCCCN(C)c1ccc(S(=O)(=O)O)cc1NC(=O)c1cc(/N=N/c2ccc(NS(=O)(=O)c3ccc(C)cc3)cc2)c2ccccc2c1O [Compound 45] | 500
CCCCCCCCCCCCCCCCCCN1/C(=C/C=C/c2sc3ccccc3[n+]2CCCCCCCCCCCCCCCCCC)Sc2ccccc21 [Compound 67] | 1500
CCCCCCCCCCCCCCCCCC1=NN(c2ccc(Oc3ccccc3)c(S(=O)(=O)O)c2)C(=O)C1/N=N/c1ccc(O)c(C(=O)O)c1 (stereo not shown) [Compound 21] | 310
CCCCCCCCCCCCC/C=C/CC(O)(C(=O)Cc1cc(C(=O)O)ccc1Oc1cc(C(=O)O)cc(C(=O)O)c1)C(F)(F)F (stereo not shown) [Compound 98] | 1500
CCCCCCCCCCC/C=C\CCCCC(=O)NC1=NN(c2ccc(Oc3ccccc3)c(S(=O)(=O)O)c2)C(=O)C1 [Compound 85] | 400
CCN1C(=O)/C(=C2\SC(=S)N(CCCCCCCCCCC(=O)O)C2=O)c2ccccc21 [Compound 82] | 17000
CCCCCCCCCCCCCCCCCC1=NN(c2ccc(Oc3ccccc3)c(S(=O)(=O)O)c2)C(=O)C1/N=N/c1ccc(S(=O)(=O)O)cc1 (stereo not shown) [Compound 25] | 270
CCCCCCCCCCCCCCCCCC(=O)Nc1ccc(C(=O)CC(=O)Nc2cc(C(=O)O)ccc2Oc2cc(C(=O)O)cc(C(=O)O)c2)cc1 [Compound 60] | 440
CCCCCCCCCCCCCCCCCC/C=C/c1cc(C(=O)O)c2oc3c(C(=O)O)cccc3c2c1 [Compound 90] | 8500
CCCCCCCCCCCCCCCCCCNC(=O)C1CC(=O)N(c2ccc(Oc3ccc(S(=O)(=O)O)cc3)cc2)C1 (stereo not shown) [Compound 103] | 7700

SMILES | IC50 [nM]
CCCCCCCCCCCCCCCCCC(=O)Nc1cc(C(=O)O)ccc1Oc1cc(C(=O)O)cc(C(=O)O)c1 [Compound 61] | 2000
CCCCCCCCCCCCCCCCOc1ccc(S(=O)(=O)O)cc1C(=O)O [Compound 88] | 4400
CCCCCCCCCCCCCCCCCCn1c(-c2ccc3ccccc3c2O)nc2cc(S(=O)(=O)O)ccc21 [Compound 42] | 480
CCCCCCCCCCCCCCCCCCOc1ccc(C(=O)O)cc1NC(=O)c1cc(Sc2nnnn2-c2ccccc2)c2ccccc2c1O [Compound 46] | 7700
CCCCCCCCCCCCCCCCCC1=NN(c2ccc(Oc3ccccc3)c(S(=O)(=O)O)c2)C(=O)C1/N=N/c1ccccc1N(C)C (stereo not shown) [Compound 5] | 220
CCCCCCCCCCCCCCCCCC1=NN(c2nc3ccc(S(=O)(=O)O)cc3[nH]2)C(=O)/C1=N\c1ccc(N(CC)CC)cc1 [Compound 38] | 1450
CCCCCCCCCCCCCCCCCCOc1ccc(C(=O)CC(=O)Nc2ccc(Sc3ccccc3C(=O)O)c(C(=O)O)c2)cc1 [Compound 44] | 210
CCCCCCCCCCCCCCCCCC1=Nn2c(nc3cc(C(=O)O)ccc32)C1S(=O)(=O)O (stereo not shown) [Compound 36] | 1420
CCCCCCCCCCCCCCCCCCN(C)c1ccc(S(=O)(=O)O)cc1NC(=O)c1cc(S(=O)(=O)O)c2ccccc2c1O [Compound 41] | 490
CCCCCCCCCCCCCCCCCC(=O)Nc1ccc(NC(=O)c2cc(/N=N/c3cc(C(=O)O)c(O)cc3O)c3ccccc3c2O)cc1S(=O)(=O)O [Compound 40] | 230
C=CCCCCCCCCC(=O)CCCCCC(=O)Nc1cc(C(=O)O)ccc1Oc1cc(C(=O)O)cc(C(=O)O)c1 [Compound 94] | 18000
CCCCCCCCCCCCCCCCCCNC(=O)C1CC(=O)N(c2ccc(Oc3ccc(S(=O)(=O)O)cc3)c(S(=O)(=O)O)c2)C1 (stereo not shown) [Compound 104] | 470
CCCCCCCCCCCCCCCCCC(=O)NC1=NN(c2ccc(Oc3ccccc3)c(S(=O)(=O)O)c2)C(=O)C1/N=N/c1ccc(O)c(C(=O)O)c1 (stereo not shown) [Compound 20] | 190
CCCCCCCCCCCCCCCCCCNC(=O)c1cc(S(=O)(=O)O)c2ccccc2c1O [Compound 72] | 320
CCCCCCCCCCCC1OC1CCCCC(=O)Nc1cc(C(=O)O)ccc1Oc1cc(C(=O)O)cc(C(=O)O)c1 (stereo not shown) [Compound 87] | 400
CCCCCCCCCCCCCCCCCCC(=O)CC(=O)Nc1ccc(Oc2ccc(C(=O)O)cc2)c(C(=O)O)c1 [Compound 51] | 3000
CCCCCCCCCCCCCCCCCC1=NN(c2ccc(-c3nc4cc(S(=O)(=O)O)ccc4s3)cc2)C(=O)/C1=N\c1ccc(N(CC)CC)cc1 [Compound 37] | 1500
CCCCCCCCCCCC1OC1CCCCC(=O)Nc1cc(C(=O)O)ccc1Oc1cc(C(N)=O)cc(C(=O)O)c1 (stereo not shown) [Compound 95] | 1000
CCCCCCCCCCCCCCC(=O)NC1=NN(c2ccc(Oc3ccccc3)c(S(=O)(=O)O)c2)C(=O)C1 [Compound 84] | 730
CCCCCCCCCCCCCCCC(=O)NC(CN1CCOCC1)C(O)c1ccccc1 (stereo not shown) [Compound 74] | 19000
CCCCCCCCCCCCCCCCCC[n+]1c2cc(N(C)C)ccc2cc2ccc(N(C)C)cc21 [Compound 79] | 1600
CCCCCCCCCCCCCCCCn1c(/N=C/c2cc(Cl)cc(Br)c2O)nc2ccccc21 [Compound 58] | 3000
CCCCCCCCCCCCCCCCCCNC(=O)C1CC(=O)N(c2ccc(Oc3ccc(Br)cc3)c(S(=O)(=O)O)c2)C1 (stereo not shown) [Compound 105] | 860
CCCCCCCCCCCCCCCCOc1ccc(/C(=N\NS(=O)(=O)c2cc(C(=O)O)cc(C(=O)O)c2)N2CCCCC2)cc1OC [Compound 76] | 3000
